The numbers were not newly measured in US5843995A, “Inhibition of HIV-1 replication using oligocarbamate derivatives” (University of Medicine and Dentistry of New Jersey, priority 1997, dated 1998), which cites them from elsewhere.

The data set has as its system HIV-1. The following applies: cells pretreated with peptide 24 hours prior to infection.

For `CC(=O)N[C@H](CCCNC(=N)N)C(=O)N[C@H](CCCNC(=N)N)C(=O)N[C@H](CCCNC(=N)N)C(=O)N[C@H](CCCNC(=N)N)C(=O)N[C@H](CCCNC(=N)N)C(=O)N[C@H](CCCNC(=N)N)C(=O)N[C@H](CCCNC(=N)N)C(=O)N[C@H](CCCNC(=N)N)C(=O)N[C@H](CCCNC(=N)N)C(N)=O` [N-acetyl-(DArg)9 -NH2], the “mechanism of antiviral activity” value was “via inhibition of viral entry”.
